Consider ten compounds from ChEMBL document CHEMBL4196215 (J Med Chem, 2018).

Converted amounts (≈) assume the structure as drawn.

The subject of data set [1] is Mus musculus. Briefly: Time at which plasma concentration stays above invitro effective concentration for inhibition of ALDH1A3 in human PEO1 cells in CD1 mouse at 10 mg/kg, ip by LC-MS/MS analysis. It is filed as organism-based. Particulars: in vivo.
A short description of data set [2]: Thermodynamic solubility of the compound by quantitative nitrogen detection assay. The settings on record: read-out: Therm_solubility. It is filed as physicochemical.
The test system of data set [3] is Mus musculus. Briefly: AUC (0 to 7 hrs) in CD1 mouse at 10 mg/kg, ip measured after 7 hrs by LC-MS/MS analysis. The class given is ADME, organism-based. Also noted: dose 10 mg/kg, time < 7 hr, route intraperitoneal. Particulars: in vivo.
The nature of data set [4]: Plasma concentration in CD1 mouse at 10 mg/kg, ip measured after 2 hrs by LC-MS/MS analysis. It is filed as ADME, organism-based.
The nature of data set [5]: Plasma concentration in CD1 mouse at 10 mg/kg, ip measured after 4 hrs by LC-MS/MS analysis. It is filed as ADME, organism-based.
The nature of data set [6]: Plasma concentration in CD1 mouse at 10 mg/kg, ip measured after 0.5 hrs by LC-MS/MS analysis. The class given is ADME, organism-based.
The subject of data set [7] is Mus musculus. Briefly: Time at which plasma concentration stays above invitro effective concentration for inhibition of ALDH1A3 in human OVCAR5 cells in CD1 mouse at 10 mg/kg, ip by LC-MS/MS analysis. It is filed as organism-based. Particulars: in vivo.
Data set [8] in a line: Plasma concentration in CD1 mouse at 10 mg/kg, ip measured after 7 hrs by LC-MS/MS analysis. It is filed as ADME, organism-based.
Data set [9] in a line: Metabolic stability in CD1 mouse liver microsomes assessed as half life at 1 uM in presence of NADPH by LC-MS/MS analysis. The class given is ADME, microsome. (Microsomes from liver hold many membrane-bound enzymes, among them those of drug oxidation.)

For `O=c1c2cn(CC3COC3)nc2nc(SCc2cccc(F)c2)n1-c1ccccc1`, the Time in the data set with Mus musculus [1] and in the data set with Mus musculus [7] was 4 h in each case. Moreover, the solubility thermodynamic in [2] was 53 µM (≈ 22.4 µg/mL). The AUC – broadly, concentration integrated over time – with Mus musculus [3] turned out to be 11 µM·h. Besides, the concentration at 2 h in data set [4] turned out to be 2.6 µM. The compound further yielded a concentration at 4 h in data set [5] of 600 nM. Also, in [6], the concentration at 0.5 h worked out at 5.6 µM. Moreover, the concentration at 7 h in [8] amounted to 100 nM. For the same compound, the t1/2 in [9] is given as 27 min.

As to `O=c1c2cnn(C3COC3)c2nc(SCc2cccc(F)c2)n1-c1ccccc1`, in data set [2], the solubility thermodynamic is 8 µM (≈ 3.27 µg/mL).

As to `Cc1ccccc1-n1c(SCc2cccc(F)c2)nc2[nH]ncc2c1=O`, in [2], the solubility thermodynamic was 2 µM (≈ 0.733 µg/mL). The t1/2 in data set [9] is listed as 9 min.

Take `Cn1ncc2c(=O)n(-c3ccccc3)c(SCc3cccc(F)c3)nc21`: in data set [2], the solubility thermodynamic was under 0.7 µM.

As to `Cn1ncc2c(=O)n(Cc3ccccc3)c(SCc3cccc(F)c3)nc21`, the solubility thermodynamic in data set [2] was 5 µM (≈ 1.9 µg/mL).

In the case of `Cn1ncc2c(=O)n(-c3cccc(Cl)c3)c(SCc3cccc(F)c3)nc21`, the solubility thermodynamic in data set [2] was 55 µM (≈ 22 µg/mL).

For `Cc1ccccc1-n1c(SCc2cccc(F)c2)nc2c(cnn2C)c1=O`, in data set [2], the solubility thermodynamic turned out to be 38 µM (≈ 14.5 µg/mL).

Turning to `Cn1cc2c(=O)n(-c3ccccc3)c(SCc3cccc(F)c3)nc2n1`, in data set [2], the solubility thermodynamic amounted to 69 µM (≈ 25.3 µg/mL). In addition, in data set [9], the t1/2 is recorded as 13 min.

Turning to `O=c1c2cn(C3COC3)nc2nc(SCc2cccc(F)c2)n1-c1ccccc1`, in data set [2], the solubility thermodynamic is 5 µM (≈ 2.04 µg/mL). In the data set with Mus musculus [3], the AUC was 27.8 µM·h. In [4], this compound gave a concentration at 2 h of 5.2 µM. In [5], this compound displayed a concentration at 4 h of 3000 nM. Also, the concentration at 0.5 h in [6] was 7.6 µM. Also, in data set [8], the concentration at 7 h was found to be 900 nM.

On to `Cn1ncc2c(=O)n(CCc3ccccc3)c(SCc3cccc(F)c3)nc21`, for which the solubility thermodynamic in data set [2] worked out at 3 µM (≈ 1.18 µg/mL).
